Results from the supplement of paper PMC10307832.

Legend:
[1] = compound: Nc1ncn([C@H]2C[C@H](O)[C@@H](CO)O2)c(=O)n1 [Decitabine]; experiment: relative viability (nuclei count vs DMSO), 5 days (fraction); higher = more cells survive
Procedure, shortened: (§1)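 Vehicle-anchored 1536-well plates of lung cancer cell lines, held overnight at 37 °C, were pinned with five library-drug doses (not always all listed) spaced by √10. No medium change followed over the next 5 days, after which the cells were fixed, permeabilised and Hoechst-stained together and imaged at 4×. Nuclei were counted with MetaXpress, and viability is treated-well nuclei over vehicle-well nuclei, taken as a median across plates. Plates passed with control CV below 25% and at least one doubling.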

[2] = compound: O=C(C[C@H]1NCCC[C@@H]1O)Cn1cnc2cc(Br)c(Cl)cc2c1=O (racemic) [Halofuginone]; experiment: as above
Procedure, shortened: as §1

Row | Cell Line | relative viability ([1]; 0.04 µM) | relative viability ([1]; 0.1265 µM) | relative viability ([1]; 0.4 µM) | relative viability ([1]; 1.265 µM) | relative viability ([1]; 4 µM) | relative viability ([2]; 0.001 µM) | relative viability ([2]; 0.003162 µM) | relative viability ([2]; 0.01 µM) | relative viability ([2]; 0.03162 µM) | relative viability ([2]; 0.1 µM) | relative viability ([1]; 2 µM, anchor plate)
1 | NCI-H1623 | 0.864 | 0.749 | 0.664 | 0.52 | 0.516 | 0.947 | 0.873 | 0.966 | 1.07 | 0.875 | –
2 | HCC-827 | 0.306 | 0.483 | 0.398 | 0.288 | 0.377 | 1.07 | 1.04 | 0.976 | 1.03 | 0.939 | 0.325
3 | NCI-H322M | 0.685 | 0.821 | 0.742 | 0.591 | 0.587 | 0.991 | 0.956 | 0.883 | 0.649 | 0.478 | 0.699
4 | ChaGo-K-1 | 0.933 | 0.816 | 0.537 | 0.482 | 0.477 | 0.995 | 0.968 | 0.916 | 0.967 | 1.03 | 0.537
5 | BEN | 0.848 | 0.853 | 0.663 | 0.587 | 0.505 | 0.993 | 1.05 | 1.05 | 1.03 | 0.65 | 0.771
6 | NCI-H2347 | 0.885 | 0.887 | 0.697 | 0.6 | 0.66 | 1.08 | 1.01 | 1.02 | 1.02 | 0.886 | 0.587
7 | LOU-NH91 | 0.781 | 0.928 | 0.886 | 0.83 | 0.848 | 1.03 | 0.929 | 0.98 | 1.06 | 0.912 | 0.808
8 | NCI-H2228 | 0.665 | 0.539 | 0.426 | 0.283 | 0.275 | 0.966 | 0.995 | 0.981 | 0.642 | 0.194 | –
9 | NCI-H2342 | 0.977 | 1.05 | 0.97 | 0.671 | 0.645 | 1.07 | 0.956 | 0.961 | 0.963 | 0.95 | 0.745
10 | HCC-366 | 1.03 | 0.977 | 0.546 | 0.241 | 0.155 | 1.02 | 1.05 | 1 | 0.963 | 1.01 | 0.344
11 | NCI-H2405 | 0.898 | 0.903 | 0.758 | 0.596 | 0.49 | 1.16 | 1.03 | 1.01 | 0.96 | 0.876 | 0.745
12 | Calu-6 | 0.785 | 0.644 | 0.383 | 0.301 | 0.272 | 1.08 | 1.04 | 1 | 0.633 | 0.279 | –
